# “And” between values parts separate entries of the source, which are not always exact repeats. Equal entries are not always repeated.
# Assay: clinical
# Settings: human, in vivo
# Procedure: Safety and tolerability were evaluated by clinical and laboratory assessments. PK was evaluated on Days 1 and 18 of cycle 1. Efficacy was assessed by RECIST criteria and overall survival.
smiles,measurement,value
"CCNCCC(O)CNCCCCNCC(O)CCNCC [(S,S)-(HO)2DEHSPM, (6S,15S)-3,8,13,18-teraazaicosane-6,15-diol]",MTD at 3 weeks,< 0.8 mg/kg and < 0.8 mg/kg/day

# — patent publication US20230064990A1, “DOSING REGIMENS AND METHODS FOR TREATING CANCER” (Panbela Therapeutics, Inc., priority 2020, published 2023)
